Values quoted from earlier work, collected in the Kinase Knowledgebase extract (Sharma et al. 2016).

Target: MAPK14 (human) (UniProt Q16539)
Assay: Assessment of MAPK14 Kinase Activity

MAPK14 (human), sequence (Q16539 whole entry, looked up): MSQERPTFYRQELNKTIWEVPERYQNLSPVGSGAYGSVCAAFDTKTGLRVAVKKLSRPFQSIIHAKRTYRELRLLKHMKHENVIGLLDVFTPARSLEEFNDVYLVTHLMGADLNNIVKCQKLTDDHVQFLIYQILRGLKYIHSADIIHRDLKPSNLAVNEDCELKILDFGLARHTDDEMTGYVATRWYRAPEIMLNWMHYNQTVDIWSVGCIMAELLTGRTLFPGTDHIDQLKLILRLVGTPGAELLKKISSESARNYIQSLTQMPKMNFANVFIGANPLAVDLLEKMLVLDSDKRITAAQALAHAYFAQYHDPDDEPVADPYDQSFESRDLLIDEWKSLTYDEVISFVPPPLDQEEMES

Compound	IC50 [nM]
Cn1c(=O)cc(Nc2ccc(F)cc2F)c2cnn(-c3ccc(F)cc3F)c21	1000
Cn1c(=O)cc(NC2CCOCC2)c2cnn(-c3cccc(F)c3)c21	1000
Cc1ccc(C(=O)Nc2ccon2)cc1-c1cc2cnn(-c3c(F)cccc3F)c2n(C)c1=O	1
Cc1c(F)cc(C(=O)NC2CC2)cc1-c1cc2cnn(-c3c(F)cccc3F)c2n(C)c1=O	0.8
Cn1c(=O)cc(Nc2ccc(F)cc2)c2cnn(-c3c(F)cccc3F)c21	1000
Cc1ccc(C(N)=O)cc1-c1cc2cnn(-c3c(F)cccc3F)c2n(C)c1=O	1.5
Cc1ccc(C(=O)NC2(C)CC2)cc1-c1cc2cnn(-c3c(F)cccc3F)c2n(C)c1=O	1.7
Cc1ccc(C(=O)O)cc1Nc1cc(=O)n(C)c2c1cnn2-c1ccc(F)cc1F	1000
CNc1noc2c(-c3cc4cnn(-c5c(F)cccc5F)c4n(C)c3=O)c(C)ccc12	2

Further lines, results first:

IC50 [nM]	Compound
0.6	CCn1c(=O)c(-c2cc(C(=O)NC3CC3)ccc2C)cc2cnn(-c3ccc(F)cc3F)c21
0.899	Cc1ccc(C(=O)NC2CC2)cc1-c1cc2cnn(-c3ccccc3Cl)c2n(C)c1=O
1.9	Cc1ccc(C(=O)NC2CC2)cc1-c1cc2cnn(-c3cc(F)ccc3F)c2n(C)c1=O
2.3	Cc1ccc(C(=O)NC2CC2)cc1-c1cc2cnn(-c3ncccc3C(F)(F)F)c2n(C)c1=O
1.9	Cc1ccc(C(=O)NC2CC2)cc1-c1cc2cnn(-c3ccccc3C)c2n(C)c1=O
